Measurements from ChEMBL document CHEMBL1201862, “PubChem BioAssay data set” (2004).
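Where inhibition never reached the appropriate level, the endpoint shown equals the highest concentration tested. Otherwise, values were interpolated linearly from a five-concentration, 48-hour dose response in 96-well plates. GI50 = concentration required for 50% inhibition of growth.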 Active and inactive are the calls of the source. No stated cut-off is given here; in the data, active = GI50 up to about 1.1 µM and inactive = higher.

Key:
Test in all cases: inhibition of tumour cell growth, NCI panel, 48 h
HCT-116 = tested on: HCT-116
MOLT-4 = tested on: MOLT-4
T47D = tested on: T47D
K562 = tested on: K562
SF-268 = tested on: SF-268
RXF 393 = tested on: RXF 393
OVCAR-8 = tested on: OVCAR-8
SK-MEL-2 = tested on: SK-MEL-2
HOP-92 = tested on: HOP-92
COLO 205 = tested on: COLO 205
UACC-62 = tested on: UACC-62
MCF7 = tested on: MCF7
MDA-N = tested on: MDA-N
Hs-578T = tested on: Hs-578T
HOP-62 = tested on: HOP-62
NCI-H460 = tested on: NCI-H460
SN12C = tested on: SN12C
HCC 2998 = tested on: HCC 2998
RPMI-8226 = tested on: RPMI-8226
SR = tested on: SR
HL-60 = tested on: HL-60
SF-539 = tested on: SF-539
786-0 = tested on: 786-0
IGROV-1 = tested on: IGROV-1
UO-31 = tested on: UO-31
OVCAR-5 = tested on: OVCAR-5
KM12 = tested on: KM12
SK-OV-3 = tested on: SK-OV-3
SK-MEL-28 = tested on: SK-MEL-28
Malme-3M = tested on: Malme-3M
A498 = tested on: A498
SNB-19 = tested on: SNB-19
ACHN = tested on: ACHN
TK-10 = tested on: TK-10
PC-3 = tested on: PC-3
MDA-MB-435 = tested on: MDA-MB-435
OVCAR-4 = tested on: OVCAR-4
CAKI-1 = tested on: CAKI-1
BT-549 = tested on: BT-549
M14 = tested on: M14
SNB-75 = tested on: SNB-75
CCRF-CEM = tested on: CCRF-CEM
DU-145 = tested on: DU-145
NCI-H522 = tested on: NCI-H522
U-251 = tested on: U-251
SW-620 = tested on: SW-620
A549 = tested on: A549
NCI-H23 = tested on: NCI-H23
EKVX = tested on: EKVX
LOX IMVI = tested on: LOX IMVI
HCT-15 = tested on: HCT-15
SK-MEL-5 = tested on: SK-MEL-5
MDA-MB-231 = tested on: MDA-MB-231
UACC-257 = tested on: UACC-257
OVCAR-3 = tested on: OVCAR-3
NCI/ADR-RES = tested on: NCI/ADR-RES
SF-295 = tested on: SF-295
NCI-H226 = tested on: NCI-H226
HT-29 = tested on: HT-29

Measured: GI50

COc1ccccc1/C=C1\Sc2scc(-c3cccc([N+](=O)[O-])c3)[n+]2C1=O
2.11 µM: HCT-15
active: HL-60 0.26 µM | CCRF-CEM 0.476 µM
inactive: HCT-116 4.69 µM | MOLT-4 1.28 µM | T47D 7.23 µM | K562 2.79 µM | SF-268 4.78 µM | RXF 393 4.58 µM | OVCAR-8 7.19 µM | SK-MEL-2 12.8 µM | HOP-92 4.98 µM | COLO 205 2.11 µM | UACC-62 8.51 µM | MCF7 2 µM | MDA-N 2.87 µM | Hs-578T 18.5 µM | HOP-62 13.9 µM | NCI-H460 13.2 µM | SN12C 2.88 µM | HCC 2998 10.4 µM | RPMI-8226 3.18 µM | SR 2.19 µM | SF-539 1.62 µM | 786-0 2.76 µM | IGROV-1 7.46 µM | UO-31 2.86 µM | OVCAR-5 15.6 µM | KM12 10.8 µM | SK-OV-3 13.2 µM | SK-MEL-28 15 µM | Malme-3M 3.3 µM | A498 21.3 µM | SNB-19 12.1 µM | ACHN 3.06 µM | TK-10 2.83 µM | PC-3 15.7 µM | MDA-MB-435 4.99 µM | OVCAR-4 13.3 µM | CAKI-1 2.43 µM | BT-549 2.55 µM | M14 3.93 µM | SNB-75 12.8 µM | DU-145 13.5 µM | NCI-H522 1.34 µM | U-251 14.9 µM | SW-620 4.32 µM | A549 17.1 µM | NCI-H23 10.4 µM | EKVX 11.4 µM | LOX IMVI 1.71 µM | SK-MEL-5 2.53 µM | MDA-MB-231 5.04 µM | UACC-257 7.11 µM | OVCAR-3 9.75 µM | NCI/ADR-RES 6.84 µM | SF-295 17.5 µM | NCI-H226 12.4 µM | HT-29 3.27 µM

Cc1cc(C)c(C[C@H]2COC(=O)[C@]2(O)Cc2c(C)cc(C)cc2C)c(C)c1
inactive: HCT-116 20.7 µM | MOLT-4 26.7 µM | T47D 4.67 µM | K562 25.2 µM | SF-268 14.9 µM | RXF 393 11.2 µM | OVCAR-8 23.6 µM | SK-MEL-2 23.1 µM | HOP-92 14.2 µM | COLO 205 18.7 µM | UACC-62 13.7 µM | MCF7 18.1 µM | MDA-N 19.8 µM | Hs-578T 17.7 µM | HOP-62 19.2 µM | NCI-H460 16.8 µM | SN12C 19.4 µM | HCC 2998 13.7 µM | RPMI-8226 25.2 µM | SR 41.5 µM | HL-60 14.7 µM | SF-539 23.9 µM | 786-0 20.8 µM | UO-31 19.6 µM | OVCAR-5 17.1 µM | KM12 18.3 µM | SK-OV-3 17.9 µM | SK-MEL-28 24.7 µM | Malme-3M 13.9 µM | A498 14.6 µM | SNB-19 21.6 µM | ACHN 18.2 µM | TK-10 21.6 µM | PC-3 15.1 µM | MDA-MB-435 18.3 µM | OVCAR-4 12.9 µM | CAKI-1 18.6 µM | BT-549 18.4 µM | M14 18.3 µM | SNB-75 19.4 µM | CCRF-CEM 31.7 µM | DU-145 15.2 µM | NCI-H522 18.7 µM | U-251 18.9 µM | SW-620 20.9 µM | A549 15.7 µM | NCI-H23 21 µM | EKVX 12.6 µM | LOX IMVI 17.8 µM | SK-MEL-5 17 µM | MDA-MB-231 16.7 µM | UACC-257 17.7 µM | OVCAR-3 15 µM | NCI/ADR-RES 15.6 µM | SF-295 16.9 µM | NCI-H226 17 µM | HT-29 27.9 µM
17.3 µM: HCT-15
